Source: PubChem BioAssay AID330 (DTP/NCI, 2004)
“And” between values parts separate entries of the source, which are not always exact repeats. Equal entries are not always repeated. Toxic doses and inconclusive results are not listed. How the source made its calls: active means survival T/C of 150% or more; inactive means T/C below 125% in these data. Square brackets hold non-standard residues; d marks the D form. Peptide text beside a SMILES is read from it. * marks the point of attachment. ξ: configuration not given here. ξF = NC(Cc1ccccc1)C(=O)O; Cbz = O=C(OCc1ccccc1)*

Test system: P388 leukemia ip, CD2F1 mice, survival T/C
Experiment: NCI In Vivo Anticancer Drug Screen. Data for tumor model P388 Leukemia (intraperitoneal) in CD2F1 (CDF1) mice
Conditions: endpoint: median survival time, higher = longer survival
Method in brief: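 Mice carrying the transplanted tumor received test compound or vehicle. Survival was recorded in each group, and the value is the treated-group measurement divided by that of the vehicle-treated control group.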

[1] = dose: 60.0 mg/kg/injection, schedule: Q01DX005 (ip), vehicle: saline with Tween-80
[2] = dose: 120.0 mg/kg/injection, schedule: Q01DX005 (ip), vehicle: saline with Tween-80
[3] = dose: 240.0 mg/kg/injection, schedule: Q01DX005 (ip), vehicle: saline with Tween-80
[4] = dose: 100.0 mg/kg/injection, schedule: Q04DX003 (ip), vehicle: saline
[5] = dose: 25.0 mg/kg/injection, schedule: Q01DX009 (ip), vehicle: saline
[6] = dose: 50.0 mg/kg/injection, schedule: Q01DX009 (ip), vehicle: saline
[7] = dose: 100.0 mg/kg/injection, schedule: Q01DX009 (ip), vehicle: saline
[8] = dose: 200.0 mg/kg/injection, schedule: Q01DX009 (ip), vehicle: saline
[9] = dose: 50.0 mg/kg/injection, schedule: Q01DX005 (ip), vehicle: Klucel (hydroxypropylcellulose) (HPC)
[10] = dose: 12.5 mg/kg/injection, schedule: Q01DX005 (ip), vehicle: Klucel (hydroxypropylcellulose) (HPC)
[11] = dose: 25.0 mg/kg/injection, schedule: Q01DX005 (ip), vehicle: Klucel (hydroxypropylcellulose) (HPC)
[12] = dose: 30.0 mg/kg/injection, schedule: Q01DX005 (ip), vehicle: saline with Tween-80
[13] = dose: 100.0 mg/kg/injection, schedule: Q04DX002 (ip), vehicle: saline with Tween-80

Measured: T/C

COc1cc(C)c2nc3c(C)c(Cl)ccc3c(Cl)c2c1
inactive: dose: 3.0 mg/kg/injection, schedule: Q01DX005 (ip), vehicle: Klucel + Tween-80 98 % of control | dose: 6.0 mg/kg/injection, schedule: Q01DX005 (ip), vehicle: Klucel + Tween-80 100 % of control | dose: 12.0 mg/kg/injection, schedule: Q01DX005 (ip), vehicle: Klucel + Tween-80 97 % of control | dose: 50.0 mg/kg/injection, schedule: Q01DX005 (ip), vehicle: Klucel + Tween-80 88 % of control

CC(=O)c1oc2cc([N+](=O)[O-])c3ccccc3c2c1C
inactive: [1] 107 % of control | [2] 98 % of control | [3] 88 % of control

CS(C)=NC(=Nc1ccccc1)c1ccccc1
inactive: dose: 50.0 mg/kg/injection, schedule: Q04DX003 (ip), vehicle: saline with Tween-80 101 % of control | dose: 100.0 mg/kg/injection, schedule: Q04DX003 (ip), vehicle: saline with Tween-80 104 % of control

CN1C(c2ccccc2Cl)C2CCCC(C2O)C1c1ccccc1Cl (stereo not drawn)
inactive: [4] 100 % of control | dose: 200.0 mg/kg/injection, schedule: Q04DX003 (ip), vehicle: saline 100 % of control | dose: 400.0 mg/kg/injection, schedule: Q04DX003 (ip), vehicle: saline 95 % of control

Cc1ccc([N+](=O)[O-])cc1NC(=O)NNC(=O)CNC(=O)Nc1cccc(C(F)(F)F)c1
inactive: [1] 95 % of control | [2] 96 % of control | [3] 100 % of control

CNC(=S)N/N=C/c1ccccn1
inactive: [5] 117 % of control | [6] 116 % of control | [7] 101 % of control | [8] 97 % of control

C=CCN(CC=C)c1nc(N)nc(N)n1
inactive: [6] 96 % of control | [7] 90 % of control | [8] 121 % of control

Fc1ccc(C(Nc2nncs2)Nc2nncs2)cc1
active: dose: 200.0 mg/kg/injection, schedule: Q01DX005 (ip), vehicle: Klucel (hydroxypropylcellulose) (HPC) 152 % of control
inactive: [9] 111 % of control

COc1cccc(C(=O)c2ccncc2C)c1OC
inactive: dose: 12.5 mg/kg/injection, schedule: Q01DX009 (ip), vehicle: water 103 % of control | dose: 25.0 mg/kg/injection, schedule: Q01DX009 (ip), vehicle: water 102 % of control | dose: 50.0 mg/kg/injection, schedule: Q01DX009 (ip), vehicle: water 100 % of control | dose: 100.0 mg/kg/injection, schedule: Q01DX009 (ip), vehicle: water 97 % of control | dose: 200.0 mg/kg/injection, schedule: Q01DX009 (ip), vehicle: water 102 % of control

O=C(NCCCl)Oc1cc(Cl)c(Cl)cc1Cl
inactive: [10] 120 % of control | [11] 111 % of control | dose: 100.0 mg/kg/injection, schedule: Q01DX001 (ip), vehicle: Klucel (hydroxypropylcellulose) (HPC) 102 % of control

N=C1C=CC2C(=Nc3ccccc3[N+]2=O)N1CCO (stereo not drawn)
inactive: dose: 15.0 mg/kg/injection, schedule: Q01DX005 (ip), vehicle: saline with Tween-80 99 % of control and 105 % of control | [12] 101 % of control and 112 % of control | [1] 100 % of control and 103 % of control

CC1CCCCC1=C(C#N)C#N (stereo not drawn)
inactive: dose: 12.5 mg/kg/injection, schedule: Q01DX009 (ip), vehicle: other 95 % of control | dose: 25.0 mg/kg/injection, schedule: Q01DX009 (ip), vehicle: other 100 % of control

CC(=O)Nc1ccc(S(N)(=O)=O)cc1
inactive: [5] 96 % of control | [6] 95 % of control | [7] 96 % of control | [8] 102 % of control

Cc1cc([N+](=O)[O-])cc(C)c1OC(=O)Nc1c(Cl)cccc1Cl
inactive: [12] 101 % of control | [1] 100 % of control and 95 % of control | [2] 99 % of control and 100 % of control | [3] 94 % of control

c1ccccc1
inactive: dose: 0.12 % in 0.5 ml injection vol, schedule: Q01DX009 (ip), vehicle: water 100 % of control | dose: 0.25 % in 0.5 ml injection vol, schedule: Q01DX009 (ip), vehicle: water 102 % of control | dose: 0.5 % in 0.5 ml injection vol, schedule: Q01DX009 (ip), vehicle: water 104 % of control | dose: 1.0 % in 0.5 ml injection vol, schedule: Q01DX009 (ip), vehicle: water 100 % of control | dose: 2.0 % in 0.5 ml injection vol, schedule: Q01DX009 (ip), vehicle: water 100 % of control and 102 % of control | dose: 4.0 % in 0.5 ml injection vol, schedule: Q01DX009 (ip), vehicle: water 99 % of control | dose: 8.0 % in 0.5 ml injection vol, schedule: Q01DX009 (ip), vehicle: water 100 % of control | dose: 16.0 % in 0.5 ml injection vol, schedule: Q01DX009 (ip), vehicle: water 95 % of control

CC1CC2OC(=O)C(CN3CC3)C2CC2(C)C(O)CC(O)C12 (stereo not drawn)
inactive: dose: 25.0 mg/kg/injection, schedule: Q04DX002 (ip), vehicle: saline with Tween-80 108 % of control and 93 % of control | dose: 50.0 mg/kg/injection, schedule: Q04DX002 (ip), vehicle: saline with Tween-80 101 % of control and 113 % of control | [13] 102 % of control and 113 % of control

O=C(c1ccccc1)C(O)n1ccnc1 (stereo not drawn)
inactive: dose: 50.0 mg/kg/injection, schedule: Q01DX009 (ip), vehicle: distilled water + alcohol 102 % of control | dose: 100.0 mg/kg/injection, schedule: Q01DX009 (ip), vehicle: distilled water + alcohol 104 % of control | dose: 200.0 mg/kg/injection, schedule: Q01DX009 (ip), vehicle: distilled water + alcohol 107 % of control

O=C(O)CNC(=O)CNC(=O)C(Cc1ccccc1)NC(=O)OCc1ccccc1 (stereo not drawn) (Cbz-[ξF]-Gly-Gly-OH)
inactive: dose: 50.0 mg/kg/injection, schedule: Q01DX005 (ip), vehicle: saline with Tween-80 100 % of control | dose: 100.0 mg/kg/injection, schedule: Q01DX005 (ip), vehicle: saline with Tween-80 99 % of control | dose: 200.0 mg/kg/injection, schedule: Q01DX005 (ip), vehicle: saline with Tween-80 91 % of control

CNC(=S)N/N=C(/C)CSCC(=O)OC
inactive: [6] 100 % of control | [7] 92 % of control | [8] 91 % of control

Cc1cc(N/N=C/c2ccccn2)c2cc3c(cc2n1)OCO3
inactive: [10] 103 % of control | [11] 104 % of control | [9] 101 % of control and 104 % of control

CN1c2ccccc2SC12C(=S)N(c1ccccc1)C(=S)N2c1ccccc1 (stereo not drawn)
inactive: [13] 98 % of control | dose: 200.0 mg/kg/injection, schedule: Q04DX002 (ip), vehicle: saline with Tween-80 90 % of control | dose: 400.0 mg/kg/injection, schedule: Q04DX002 (ip), vehicle: saline with Tween-80 86 % of control

N=c1ccc([N+](=O)[O-])cn1O
inactive: [6] 98 % of control | [7] 96 % of control

NC(=O)C(N)CCc1ccccc1 (stereo not drawn)
inactive: [1] 100 % of control | [2] 102 % of control | [3] 96 % of control

CC1OC(c2c(Cl)cccc2[N+](=O)[O-])OC1C (stereo not drawn)
inactive: dose: 60.0 mg/kg/injection, schedule: Q01DX005 (ip), vehicle: Klucel (hydroxypropylcellulose) (HPC) 99 % of control | dose: 120.0 mg/kg/injection, schedule: Q01DX005 (ip), vehicle: Klucel (hydroxypropylcellulose) (HPC) 91 % of control | dose: 240.0 mg/kg/injection, schedule: Q01DX005 (ip), vehicle: Klucel (hydroxypropylcellulose) (HPC) 92 % of control

O=C1CCN2CO[C@H](c3ccccc3)C[C@@H]2C1
inactive: [10] 103 % of control | [11] 102 % of control | [9] 102 % of control

CCC[CH2][Sn]([CH2]CCC)([S]C(C)=O)[S]C(C)=O
inactive: dose: 12.5 mg/kg/injection, schedule: Q01DX001 (ip), vehicle: Klucel (hydroxypropylcellulose) (HPC) 113 % of control | dose: 25.0 mg/kg/injection, schedule: Q01DX001 (ip), vehicle: Klucel (hydroxypropylcellulose) (HPC) 105 % of control | dose: 50.0 mg/kg/injection, schedule: Q01DX001 (ip), vehicle: Klucel (hydroxypropylcellulose) (HPC) 114 % of control

COc1ccc(C2CC(=O)C=C3c4ccc(OC)cc4CCC32)cc1 (stereo not drawn)
inactive: dose: 50.0 mg/kg/injection, schedule: Q01DX009 (ip), vehicle: Klucel (hydroxypropylcellulose) (HPC) 91 % of control | dose: 100.0 mg/kg/injection, schedule: Q01DX009 (ip), vehicle: Klucel (hydroxypropylcellulose) (HPC) 91 % of control

CCC[As](=O)(O)CCC
inactive: dose: 20.0 mg/kg/injection, schedule: Q01DX009 (ip), vehicle: saline 100 % of control | dose: 25.0 mg/kg/injection, schedule: Q04DX003 (ip), vehicle: saline 86 % of control | dose: 30.0 mg/kg/injection, schedule: Q01DX009 (ip), vehicle: saline 100 % of control | dose: 45.0 mg/kg/injection, schedule: Q01DX009 (ip), vehicle: saline 113 % of control | dose: 50.0 mg/kg/injection, schedule: Q04DX003 (ip), vehicle: saline 109 % of control | [4] 90 % of control
